Data from PubChem BioAssay AID248 (DTP/NCI, 2004).
“And” between values parts separate entries of the source, which are not always exact repeats. Equal entries are not always repeated. Inconclusive results and toxic doses are left out.

Tested on: L1210 leukemia ip in BDF1 mice, survival T/C
Assay: NCI In Vivo Anticancer Drug Screen. Data for tumor model L1210 Leukemia (intraperitoneal) in B6D2F1 (BDF1) mice
Settings: endpoint: mean survival time, higher = longer survival
Outline: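 Mice bearing the transplanted tumor received compound or vehicle. Survival of the treated group was divided by that of the vehicle-treated control group to give the ratio.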

[1] = dose: 50.0 mg/kg/injection, schedule: Q01DX009 (ip), vehicle: saline
[2] = dose: 100.0 mg/kg/injection, schedule: Q01DX009 (ip), vehicle: saline
[3] = dose: 100.0 mg/kg/injection, schedule: Q01DX009 (ip), vehicle: saline with Tween-80
[4] = dose: 200.0 mg/kg/injection, schedule: Q01DX009 (ip), vehicle: saline with Tween-80
[5] = dose: 100.0 mg/kg/injection, schedule: Q04DX003 (ip), vehicle: saline

**Q.** Which results are given for `CC(C)=CCC/C(C)=C/CN1C(=O)CN(C)C1=O`?
**A.** T/C [1]: 98 % of control; T/C (dose: 100.0 mg/kg/injection, schedule: Q01DX001 (ip), vehicle: saline): 100 % of control; T/C [2]: 101 % of control; T/C (dose: 200.0 mg/kg/injection, schedule: Q01DX001 (ip), vehicle: saline): 103 % of control; T/C (dose: 200.0 mg/kg/injection, schedule: Q01DX009 (ip), vehicle: saline): 98 % of control; T/C (dose: 400.0 mg/kg/injection, schedule: Q01DX001 (ip), vehicle: saline): 100 % of control

**Q.** With `NNC(=O)CCCCCO` as the molecule, how does the T/C [3] read?
**A.** 102 % of control

**Q.** And the T/C [4]?
**A.** 100 % of control

**Q.** What about the T/C (dose: 400.0 mg/kg/injection, schedule: Q01DX009 (ip), vehicle: saline with Tween-80) of the same molecule?
**A.** 100 % of control

**Q.** For `NC1CC1c1ccccc1` (stereo not given), which T/C (dose: 12.5 mg/kg/injection, schedule: Q04DX003 (ip), vehicle: saline) is on record?
**A.** 98 % of control and 93 % of control

**Q.** And the T/C (dose: 25.0 mg/kg/injection, schedule: Q01DX009 (ip), vehicle: saline)?
**A.** 97 % of control

**Q.** What about the T/C (dose: 25.0 mg/kg/injection, schedule: Q04DX003 (ip), vehicle: saline) of the same molecule?
**A.** 96 % of control and 100 % of control and 92 % of control

**Q.** And the T/C [1]?
**A.** 105 % of control

**Q.** What about the T/C (dose: 50.0 mg/kg/injection, schedule: Q04DX003 (ip), vehicle: saline) of the same molecule?
**A.** 96 % of control and 95 % of control and 100 % of control

**Q.** What about the T/C [2] of the same molecule?
**A.** 105 % of control

**Q.** And the T/C [5]?
**A.** 86 % of control and 103 % of control

**Q.** Which T/C (dose: 6.25 mg/kg/injection, schedule: Q01DX001 (ip), vehicle: saline with Tween-80) does the source give for `O=[As](O)(CC(O)c1ccccc1)c1ccc(Cl)cc1` (stereo not given) here?
**A.** 100 % of control

**Q.** And the T/C (dose: 12.5 mg/kg/injection, schedule: Q01DX001 (ip), vehicle: saline with Tween-80)?
**A.** 109 % of control

**Q.** And the T/C (dose: 25.0 mg/kg/injection, schedule: Q01DX001 (ip), vehicle: saline with Tween-80)?
**A.** 105 % of control and 116 % of control

**Q.** Which results are given for `Cc1ccc2cccc(CC(=O)NN)c2c1`?
**A.** T/C (dose: 50.0 mg/kg/injection, schedule: Q01DX001 (ip), vehicle: saline with Tween-80): 92 % of control; T/C (dose: 50.0 mg/kg/injection, schedule: Q01DX009 (ip), vehicle: saline with Tween-80): 102 % of control; T/C (dose: 50.0 mg/kg/injection, schedule: Q04DX003 (ip), vehicle: saline with Tween-80): 92 % of control; T/C (dose: 100.0 mg/kg/injection, schedule: Q01DX001 (ip), vehicle: saline with Tween-80): 92 % of control; T/C [3]: 102 % of control; T/C (dose: 100.0 mg/kg/injection, schedule: Q04DX002 (ip), vehicle: saline with Tween-80): 93 % of control; T/C (dose: 100.0 mg/kg/injection, schedule: Q04DX003 (ip), vehicle: saline with Tween-80): 90 % of control; T/C (dose: 200.0 mg/kg/injection, schedule: Q01DX001 (ip), vehicle: saline with Tween-80): 103 % of control; T/C [4]: 111 % of control; T/C (dose: 200.0 mg/kg/injection, schedule: Q04DX002 (ip), vehicle: saline with Tween-80): 98 % of control; T/C (dose: 200.0 mg/kg/injection, schedule: Q04DX003 (ip), vehicle: saline with Tween-80): 89 % of control

**Q.** How did the T/C (dose: 3.12 mg/kg/injection, schedule: Q01DX Z (ip), vehicle: carboxymethylcellulose (CMC)) turn out when `N#CCCNC(=O)N(CCC#N)N=O` was run?
**A.** 100 % of control

**Q.** And the T/C (dose: 6.25 mg/kg/injection, schedule: Q01DX Z (ip), vehicle: carboxymethylcellulose (CMC))?
**A.** 102 % of control

**Q.** What about the T/C (dose: 12.5 mg/kg/injection, schedule: Q01DX Z (ip), vehicle: carboxymethylcellulose (CMC)) of the same molecule?
**A.** 103 % of control

**Q.** What about the T/C (dose: 25.0 mg/kg/injection, schedule: Q01DX Z (ip), vehicle: carboxymethylcellulose (CMC)) of the same molecule?
**A.** 118 % of control

**Q.** What about the T/C (dose: 75.0 mg/kg/injection, schedule: Q01DX Z (ip), vehicle: carboxymethylcellulose (CMC)) of the same molecule?
**A.** 153 % of control

**Q.** And the T/C (dose: 100.0 mg/kg/injection, schedule: Q01DX Z (ip), vehicle: carboxymethylcellulose (CMC))?
**A.** 118 % of control

**Q.** What about the T/C (dose: 150.0 mg/kg/injection, schedule: Q01DX Z (ip), vehicle: carboxymethylcellulose (CMC)) of the same molecule?
**A.** 155 % of control

**Q.** And the T/C (dose: 200.0 mg/kg/injection, schedule: Q01DX Z (ip), vehicle: carboxymethylcellulose (CMC))?
**A.** 116 % of control

**Q.** `CCOC(=O)C1=C(C)NC(C)=C(C(=O)OCC)C1c1ccccc1Cl` was tested. Which T/C [5] did it give?
**A.** 97 % of control

**Q.** What about the T/C (dose: 200.0 mg/kg/injection, schedule: Q04DX003 (ip), vehicle: saline) of the same molecule?
**A.** 117 % of control

**Q.** And the T/C (dose: 400.0 mg/kg/injection, schedule: Q04DX003 (ip), vehicle: saline)?
**A.** 87 % of control

**Q.** With `CCOc1ccc(/C=N/Nc2nnc(N/N=C/c3ccc(OCC)c(OCC)c3)c3ccccc23)cc1OCC` as the molecule, how does the T/C (dose: 50.0 mg/kg/injection, schedule: Q01DX001 (ip), vehicle: carboxymethylcellulose (CMC)) read?
**A.** 95 % of control

**Q.** With `CCCCCCCCC1CCCCC1` as the molecule, how does the T/C (dose: 50.0 mg/kg/injection, schedule: Q04DX002 (sc), vehicle: olive oil, sesame oil, peanut oil) read?
**A.** 105 % of control

**Q.** And the T/C (dose: 100.0 mg/kg/injection, schedule: Q04DX002 (sc), vehicle: olive oil, sesame oil, peanut oil)?
**A.** 109 % of control

**Q.** What about the T/C (dose: 200.0 mg/kg/injection, schedule: Q04DX002 (sc), vehicle: olive oil, sesame oil, peanut oil) of the same molecule?
**A.** 109 % of control
